From patent US20260083865A1, “PROSTATE SPECIFIC MEMBRANE ANTIGEN (PSMA) LIGANDS AND USE THEREOF” (priority 2022, published 2026)
Numbered stars: 1 amine (or outer) side, 2 acyl side, 3 side chain; on linkers, the order of the positions; unused ones are H or OH. Bridge positions count the residues as written; N and C are the ends. Square brackets hold non-standard residues; d marks the D form. Peptide text beside a SMILES is read from it. * marks the point of attachment. X3 = O=C(O)CN1CCN(CC(=O)O)CCN(CC(=O)NCCCOCCOCCOCCCN*)CCN(CC(=O)O)CC1; DOTA = O=C(O)CN1CCN(CC(=O)O)CCN(CC(=O)*)CCN(CC(=O)O)CC1; Trp(5-Br) = N[C@@H](Cc1c[nH]c2ccc(Br)cc12)C(=O)O; Phe(3-Cl) = N[C@@H](Cc1cccc(Cl)c1)C(=O)O; Phe(4-Cl) = N[C@@H](Cc1ccc(Cl)cc1)C(=O)O; Arg(Me) = CNC(=N)NCCC[C@H](N)C(=O)O; Lys(Me2) = CN(C)CCCC[C@H](N)C(=O)O; X1 = O=C(CC1CCN([*:1])CC1)[*:2]; Cit = NC(=O)NCCC[C@H](N)C(=O)O; Lys(Me) = CNCCCC[C@H](N)C(=O)O; Suc = O=C(CCC(=O)[*:2])[*:1]; Tle = CC(C)(C)[C@H](N)C(=O)O; 4Amb = NCc1ccc(C(=O)O)cc1; Nle = CCCC[C@H](N)C(=O)O; NHCH2tBu = CC(C)(C)CN*; Aib = CC(C)(N)C(=O)O; CO = O=C([*:1])[*:2]; NHBu = CCCCN*

Columns and labels:
[1] = biological target: T1, PSMA-expressing C4-2 cells (Homo sapiens, UniProt Q04609); assay: FACS binding assay (competition with 50 nM PSM-0183); settings: FACS binding, C4-2 cells, competition with 50 nM PSM-0183; category; read-out: pIC50 [C4-2] CAT (converted)
T1 construct: PSMA-expressing C4-2 cells (ATCC, Cat. No. CRL-3314) were cultured in RPMI-1640; host or cells: C4-2 cells
Procedure: In order to determine binding of compounds according to the present invention to PSMA-expressing cells, a FACS binding assay was established.
PSMA-expressing C4-2 cells (ATCC, Cat. No. CRL-3314) were cultured in RPMI-1640 (Pan Biotech, Cat. No. P04-18050) including 10% fetal calf serum (Biochrom) and 100 U/ml penicillin and 100 μg/mL streptomycin (Sigma, Cat. No. P0781). Cells were detached with Accutase (Biolegend, Cat. No. BLD-423201) and washed in FACS buffer (PBS (Sigma, Cat. No. D8537) including 1% fetal calf serum). Cells were diluted in FACS buffer to a final concentration of 500,000 cells per mL. 200 μL of the cell suspension were transferred to a u-shaped non-binding 96-well plate (Greiner Bio-One, Cat. No. 650901) and cells were washed in ice-cold FACS buffer.
For IC50 determination, C4-2 cells were incubated with 50 nM PSM-0183 (Ac-Thr-Aib-Phe[Cys-Lys-Arg-Aib-Asn-Cys]-Tle-Thr-Asp-Ttds-Ttds-AF488N3K-NH2) in the presence of increasing concentrations of test compounds at 4° C. for 1 hour. After two wash steps with ice-cold FACS buffer, cells were analyzed in an Attune NxT flow cytometer. Median fluorescence intensities (MFI) of the FITC/AF488-channel were calculated by Attune NxT software. MFI values were plotted against peptide concentration and four parameter logistic (4PL) curve fitting and IC50/pIC50 calculations were performed using ActivityBase software (IDBS).

[2] = biological target: T2, Fc-fusion protein of human PSMA (hPSMA-Fc) (Homo sapiens, UniProt Q04609); assay: Surface plasmon resonance assay (Biacore T200, single cycle kinetic); assay type: binding; settings: SPR, hPSMA-Fc, single cycle kinetic, 25° C.; category; read-out: pKD CAT (converted)
T2 construct: purchased Acro Biosystems PSA-H5264
Procedure: Surface plasmon resonance (SPR) studies were performed using a Biacore™ T200 SPR system. Briefly, polarized light is directed towards a gold-labeled sensor surface, and minimum intensity reflected light is detected. The angle of reflected light changes as molecules bind and dissociate.
Fc-fusion protein of human PSMA (hPSMA-Fc, Acro Biosystems, Cat #PSA-H5264) was captured on a Fc-capture chip (Biacore™ CM5 sensor chip coated with ˜300 RU of an Fc-binding peptide). hPSMA-Fc was diluted in Running Buffer (HBST, 0.1% DMSO) to a final concentration of 100 nM and then flushed over the Fc-capture chip to immobilized ˜1000 RUs.
Stock solutions of test compounds were prepared by dissolving each compound in DMSO. DMSO stock solution were diluted 1:1000 in Running Buffer without DMSO. Further sequential dilutions were made with Running Buffer containing 0.1% DMSO. SPR binding analyses were performed in Single Cycle Kinetic (SCK) mode at 25° C. Flow cell coated with the Fc-binding peptide only served as reference flowcell. After each SCK run, hPSMA-Fc was removed with 10 mM glycine buffer, pH 1.5.
In between every three SCK measurements, a blank run with Running Buffer instead of test compound was included to correct for baseline drifts (double blanking method).
Table 5 describes the protocol steps for Fc-fusion target capturing and assessment of the binding kinetics.
For each test compound, SPR raw data in the form of resonance units (RU) were plotted as sensorgrams using the Biacore™ T200 control software. The signal from the blank sensorgram was subtracted from that of the test compound sensorgram (blank corrected). The blank corrected sensorgram was corrected for baseline drift by subtracting the sensorgram of a SCK run without the test compound (running buffer only). The dissociation constant (KD) was calculated from Blank-normalized SPR data using the 1:1 Langmuir binding model from the Biacore™ Insight Evaluation software. The pKD value (negative decadic logarithm of dissociation constant) was calculated using Microsoft Excel.

T2 sequence (Q04609 44-750 limits assumed): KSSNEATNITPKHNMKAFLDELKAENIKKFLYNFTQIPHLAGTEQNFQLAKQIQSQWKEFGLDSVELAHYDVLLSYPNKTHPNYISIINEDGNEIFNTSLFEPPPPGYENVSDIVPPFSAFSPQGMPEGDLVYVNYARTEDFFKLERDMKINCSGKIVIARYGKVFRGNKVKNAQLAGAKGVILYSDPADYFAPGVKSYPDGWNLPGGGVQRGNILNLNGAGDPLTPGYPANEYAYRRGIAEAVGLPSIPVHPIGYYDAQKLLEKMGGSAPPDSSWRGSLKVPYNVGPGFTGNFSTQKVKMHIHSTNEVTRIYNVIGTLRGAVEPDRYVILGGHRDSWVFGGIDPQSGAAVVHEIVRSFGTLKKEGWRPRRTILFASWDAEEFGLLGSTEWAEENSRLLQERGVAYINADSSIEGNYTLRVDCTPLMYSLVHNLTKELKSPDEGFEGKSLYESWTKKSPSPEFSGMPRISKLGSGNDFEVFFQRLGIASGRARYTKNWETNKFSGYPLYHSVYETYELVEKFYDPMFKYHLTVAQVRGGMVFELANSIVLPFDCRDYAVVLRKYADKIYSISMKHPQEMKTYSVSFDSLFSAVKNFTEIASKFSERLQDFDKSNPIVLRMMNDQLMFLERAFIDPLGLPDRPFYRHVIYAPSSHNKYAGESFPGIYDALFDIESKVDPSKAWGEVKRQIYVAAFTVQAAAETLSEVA
T1 sequence (Q04609 whole entry): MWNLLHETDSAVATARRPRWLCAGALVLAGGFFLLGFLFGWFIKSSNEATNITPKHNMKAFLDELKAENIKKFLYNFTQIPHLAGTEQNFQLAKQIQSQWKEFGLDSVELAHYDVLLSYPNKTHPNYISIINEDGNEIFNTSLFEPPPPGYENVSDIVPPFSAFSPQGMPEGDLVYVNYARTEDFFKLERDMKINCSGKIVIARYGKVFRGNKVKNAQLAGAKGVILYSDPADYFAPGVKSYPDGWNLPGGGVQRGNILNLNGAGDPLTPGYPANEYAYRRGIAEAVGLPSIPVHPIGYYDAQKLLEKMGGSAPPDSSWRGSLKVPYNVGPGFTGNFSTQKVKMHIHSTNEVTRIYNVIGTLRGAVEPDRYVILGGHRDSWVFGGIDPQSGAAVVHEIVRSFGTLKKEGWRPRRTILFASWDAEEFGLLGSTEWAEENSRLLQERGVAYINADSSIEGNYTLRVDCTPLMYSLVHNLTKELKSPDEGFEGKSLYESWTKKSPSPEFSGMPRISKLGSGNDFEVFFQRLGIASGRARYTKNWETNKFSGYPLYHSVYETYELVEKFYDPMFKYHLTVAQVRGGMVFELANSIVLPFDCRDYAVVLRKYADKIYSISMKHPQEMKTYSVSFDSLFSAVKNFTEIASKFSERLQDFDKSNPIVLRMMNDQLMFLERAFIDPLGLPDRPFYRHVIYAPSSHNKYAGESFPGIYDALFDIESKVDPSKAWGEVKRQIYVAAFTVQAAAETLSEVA

IC50 [1] | Kd [2] | SMILES
< 200 nM | 12.6 to 126 nM | CCCC[C@H](NC(=O)[C@@H]1CSSC[C@H](NC(=O)[C@H](Cc2ccccc2)NC(=O)[C@H](C)NC(=O)[C@@H](NC(C)=O)[C@@H](C)O)C(=O)N[C@@H](CCCCN)C(=O)N[C@@H](CCCNC(=N)N)C(=O)N[C@@H](CCC(=O)O)C(=O)N[C@@H](CC(N)=O)C(=O)N1)C(=O)N[C@@H](C(=O)N[C@H](CC(=O)O)C(N)=O)[C@H](C)O [PSM-0197, Ac-Thr-Ala-Phe-[Cys-Lys-Arg-Glu-Asn-Cys]-Nle-Thr-Asp-NH2] (Ac-TAFCKRENC[Nle][dT][dD]-NH2; disulfide 4-9)
1260 to 3160 nM | 126 to 501 nM | C[C@@H](O)[C@H](NC(=O)[C@@H](NC(=O)[C@@H]1CSSC[C@H](NC(=O)[C@H](Cc2ccccc2)NC(=O)C(C)(C)NC(=O)[C@@H](NC(=O)CC2CCN(C(=O)CN3CCN(CC(=O)O)CCN(CC(=O)O)CCN(CC(=O)O)CC3)CC2)C(C)(C)C)C(=O)N[C@@H](CCCCN)C(=O)N[C@@H](CCCNC(=N)N)C(=O)NC(C)(C)C(=O)N[C@@H](CC(N)=O)C(=O)N1)C(C)(C)C)C(N)=O [PSM-0198, DOTA-Cmp-Tle-Aib-Phe-[Cys-Lys-Arg-Aib-Asn-Cys]-Tle-Thr-NH2] ({DOTA}-[X1][Tle][Aib]FCKR[Aib]NC[Tle]T-NH2; disulfide 5-10)
< 200 nM | < 12.6 nM | CNCCCC[C@@H]1NC(=O)[C@@H](NC(=O)[C@H](Cc2ccc(Cl)cc2)NC(=O)C(C)(C)NC(=O)[C@@H](NC(=O)CC2CCN(C(=O)CN3CCN(CC(=O)O)CCN(CC(=O)O)CCN(CC(=O)O)CC3)CC2)[C@@H](C)O)CSSC[C@@H](C(=O)N[C@H](C(N)=O)C(C)(C)C)NC(=O)[C@H](CC(N)=O)NC(=O)C(C)(C)NC(=O)[C@H](CCCNC(=N)N)NC1=O [PSM-0200, DOTA-Cmp-Thr-Aib-Pcf-[Cys-Lys(Me)-Arg-Aib-Asn-Cys]-Tle-NH2] ({DOTA}-[X1]T[Aib][Phe(4-Cl)]C[Lys(Me)]R[Aib]NC[Tle]-NH2; disulfide 5-10)
> 3160 nM | > 501 nM | C[C@@H]1NC(=O)[C@H](CCCNC(=N)N)NC(=O)[C@H](CCCCN)NC(=O)[C@@H](NC(=O)[C@H](Cc2ccccc2)NC(=O)[C@H](C)NC(=O)[C@@H](NC(=O)CCC(=O)NCCCOCCOCCOCCCNC(=O)CN2CCN(CC(=O)O)CCN(CC(=O)O)CCN(CC(=O)O)CC2)[C@@H](C)O)CSSC[C@@H](C(N)=O)NC(=O)[C@H](CC(N)=O)NC1=O [PSM-0201, DOTA-Ttds-Thr-Ala-Phe-[Cys-Lys-Arg-Ala-Asn-Cys]-NH2] ({X3-Suc}-TAFCKRANC-NH2; disulfide 4-9)
< 200 nM | < 12.6 nM | C[C@@H](O)[C@H](NC(=O)[C@@H](NC(=O)[C@@H]1CSSC[C@H](NC(=O)[C@H](Cc2ccccc2)NC(=O)C(C)(C)NC(=O)[C@@H](NC(=O)c2ccc(CNC(=O)CN3CCN(CC(=O)O)CCN(CC(=O)O)CCN(CC(=O)O)CC3)cc2)[C@@H](C)O)C(=O)N[C@@H](CCCCN)C(=O)N[C@@H](CCCNC(=N)N)C(=O)NC(C)(C)C(=O)N[C@@H](CC(N)=O)C(=O)N1)C(C)(C)C)C(N)=O [PSM-0202, DOTA-Pamb-Thr-Aib-Phe-[Cys-Lys-Arg-Aib-Asn-Cys]-Tle-Thr-NH2] ({DOTA-4Amb}-T[Aib]FCKR[Aib]NC[Tle]T-NH2; disulfide 4-9)
< 200 nM | < 12.6 nM | CNC(=N)NCCC[C@@H]1NC(=O)[C@H](CCCCN(C)C)NC(=O)[C@@H](NC(=O)[C@H](Cc2ccc(Cl)cc2)NC(=O)C(C)(C)NC(=O)[C@@H](NC(=O)CC2CCN(C(=O)CN3CCN(CC(=O)O)CCN(CC(=O)O)CCN(CC(=O)O)CC3)CC2)[C@@H](C)O)CSSC[C@@H](C(=O)N[C@H](C(=O)N[C@H](C(N)=O)[C@@H](C)O)C(C)(C)C)NC(=O)[C@H](CC(N)=O)NC(=O)C(C)(C)NC1=O [PSM-0203, DOTA-Cmp-Thr-Aib-Pcf-[Cys-KMe2-Arg(Me)-Aib-Asn-Cys]-Tle-Thr-NH2] ({DOTA}-[X1]T[Aib][Phe(4-Cl)]C[Lys(Me2)][Arg(Me)][Aib]NC[Tle]T-NH2; disulfide 5-10)
< 200 nM | 12.6 to 126 nM | CCCCNC(=O)N[C@H](C(=O)NC(C)(C)C(=O)N[C@@H](Cc1ccc(Cl)cc1)C(=O)N[C@H]1CSSC[C@@H](C(=O)N[C@H](C(=O)N[C@H](C(=O)N2CCC(CC(=O)N[C@H](CCCCNC(=O)CN3CCN(CC(=O)O)CCN(CC(=O)O)CCN(CC(=O)O)CC3)C(N)=O)CC2)[C@@H](C)O)C(C)(C)C)NC(=O)[C@H](CC(N)=O)NC(=O)C(C)(C)NC(=O)[C@H](CCCNC(N)=O)NC(=O)[C@H](CCCCN)NC1=O)[C@@H](C)O [PSM-0204, nBuCAyl-Thr-Aib-Pcf-[Cys-Lys-Cit-Aib-Asn-Cys]-Tle-Thr-Cmp-lys(DOTA)-NH2] ({NHBu-CO}-T[Aib][Phe(4-Cl)]CK[Cit][Aib]NC[Tle]T[X1][dK](DOTA)-NH2; disulfide 4-9)
< 200 nM | < 12.6 nM | CCCC[C@@H]1NC(=O)[C@@H](NC(=O)[C@H](Cc2ccc(Cl)cc2)NC(=O)C(C)(C)NC(=O)[C@@H](NC(C)=O)[C@@H](C)O)CSSC[C@@H](C(=O)N[C@H](C(=O)N[C@H](C(N)=O)[C@@H](C)O)C(C)(C)C)NC(=O)[C@H](CC(N)=O)NC(=O)C(C)(C)NC(=O)[C@H](CCCNC(=N)N)NC1=O [PSM-0205, Ac-Thr-Aib-Pcf-[Cys-Nle-Arg-Aib-Asn-Cys]-Tle-Thr-NH2] (Ac-T[Aib][Phe(4-Cl)]C[Nle]R[Aib]NC[Tle]T-NH2; disulfide 4-9)
1260 to 3160 nM | > 501 nM | CNCCCC[C@@H]1NC(=O)[C@@H](NC(=O)[C@H](Cc2c[nH]c3ccc(Br)cc23)NC(=O)C(C)(C)NC(=O)[C@@H](NC(=O)CC2CCN(C(=O)CN3CCN(CC(=O)O)CCN(CC(=O)O)CCN(CC(=O)O)CC3)CC2)[C@@H](C)O)CSSC[C@@H](C(=O)N[C@H](C(=O)N[C@H](C(N)=O)[C@@H](C)O)C(C)(C)C)NC(=O)[C@H](CC(N)=O)NC(=O)C(C)(C)NC(=O)[C@H](CCCNC(=N)NC)NC1=O [PSM-0206, DOTA-Cmp-Thr-Aib-5Brw-[Cys-Lys(Me)-Arg(Me)-Aib-Asn-Cys]-Tle-Thr-NH2] ({DOTA}-[X1]T[Aib][Trp(5-Br)]C[Lys(Me)][Arg(Me)][Aib]NC[Tle]T-NH2; disulfide 5-10)
< 200 nM | 12.6 to 126 nM | CCCCNC(=O)N[C@H](C(=O)NC(C)(C)C(=O)N[C@@H](Cc1cccc(Cl)c1)C(=O)N[C@H]1CSSC[C@@H](C(=O)N[C@H](C(=O)N[C@H](C(=O)N2CCC(CC(=O)N[C@H](CCCCNC(=O)CN3CCN(CC(=O)O)CCN(CC(=O)O)CCN(CC(=O)O)CC3)C(N)=O)CC2)[C@@H](C)O)C(C)(C)C)NC(=O)[C@H](CC(N)=O)NC(=O)C(C)(C)NC(=O)[C@H](CCCNC(N)=O)NC(=O)[C@H](CCCCN)NC1=O)[C@@H](C)O [PSM-0207, nBuCAyl-Thr-Aib-Mcf-[Cys-Lys-Cit-Aib-Asn-Cys]-Tle-Thr-Cmp-lys(DOTA)-NH2] ({NHBu-CO}-T[Aib][Phe(3-Cl)]CK[Cit][Aib]NC[Tle]T[X1][dK](DOTA)-NH2; disulfide 4-9)
200 to 1260 nM | 126 to 501 nM | CC(=O)N[C@H](C(=O)NC(C)(C)C(=O)N[C@@H](Cc1ccccc1)C(=O)N[C@H]1CSSC[C@@H](C(=O)NCC(C)(C)C)NC(=O)[C@H](CC(N)=O)NC(=O)C(C)(C)NC(=O)[C@H](CCCNC(=N)N)NC(=O)[C@H](CCCCN)NC1=O)[C@@H](C)O [PSM-0208, Ac-Thr-Aib-Phe-[Cys-Lys-Arg-Aib-Asn-Cys]-NHnPen] (Ac-T[Aib]FCKR[Aib]NC-NHCH2tBu; disulfide 4-9)
